Experimental findings from US8710071B2, “Compounds, compositions and methods for reducing lipid levels” (CVI Pharmaceuticals Limited, priority 2008, dated 2014) are described below.

In data set [1] the test system is LDLR mRNA. Nature of the data set: LDLR mRNA expression in HepG2 cells, quantitative real-time RT-PCR. Type of data set: cell-based, human. The following applies: indicated concentrations, 24 hours (FIG. 15A). Here is the method:
Activities of some compounds of Formulas I, II, III, and IV on LDLR mRNA expression were determined. HepG2 cells were treated with new compounds individually at a dose less than or equal to 10 μM for 24 hours. Total RNA was harvested for quantitative real-time RT-PCR analysis using the method described in Example 16B. […] In these experiments, berberine chloride was included for comparison.
The time-dependent effects of compounds of Formula I, II, III, and IV on the upregulation of LDLR mRNA and the inhibition of PCSK9 mRNA expression were examined (Horton J D, Cohen J C, Hobbs H I T. “Molecular biology of PCSK9: its role in LDL metabolism” TRENDS in Biochemical Sciences 2007; 32:71-77). HepG2 cells were treated with new compounds individually at 20 uM dose for 1 day, 2 day, and 3 days. Total RNA was isolated and 2 μg was used to generate cDNA in a reaction containing random primers and M-MLV at 37° C. for 1 hour in a volume of 25 μl. Real-time PCR was performed on the cDNA using MCEP REALPLEX 2 SYSTEM (Eppendorf) and Universal MasterMix (Applied Biosystems). Human LDLR, PCSK9, and GAPDH Pre-Developed TaqMan Assay Reagents (Applied Biosystems) were used to assess the levels of mRNA expressions in HepG2. The levels of LDLR mRNA or PCSK9 mRNA were normalized to that of GAPDH. Each RNA samples was assayed in triplicate. The abundance of LDLR mRNA or PCSK9 mRNA in untreated cells was defined as 1, and the amounts of LDLR mRNA or PCSK9 from compound-treated cells were plotted relative to that value (FIG. 10). The data shown are mean±s.d.
Total RNA was harvested for quantitative real-time RT-PCR analysis using method described in Examples 16B.
The effects of 23 compounds on the mRNA expressions of LDLR and PCSK9 were examined using quantitative real-time RT-PCR assays. HepG2 cells were treated with various compounds at 10 and 40 uM concentrations for 24 hours. Total RNA was isolated and […] was used to generate cDNA in a reaction containing random primers and M-MLV at 37° C. for 1 h in a volume of 25 μl. Real-time PCR was performed on the cDNA using MCEP REALPLEX 2 SYSTEM (Eppendorf) and Universal MasterMix (Applied Biosystems). Human LDLR, PCSK9, and GAPDH Pre-Developed TaqMan Assay Reagents (Applied Biosystems) were used to assess the levels of mRNA expressions in HepG2. The levels of LDLR and PCSK9 mRNA were normalized to that of GAPDH. Each RNA samples was assayed in duplicate. The fold activity was calculated by dividing mRNA abundance in compound treated cells with that of control.

The test system of data set [2] is PCSK9 mRNA. Nature of the data set: PCSK9 mRNA expression in HepG2 cells, quantitative real-time RT-PCR. Type of data set: cell-based, human. The settings on record: indicated concentrations, 24 hours (FIG. 15B). The protocol:
The time-dependent effects of compounds of Formula I, II, III, and IV on the upregulation of LDLR mRNA and the inhibition of PCSK9 mRNA expression were examined (Horton J D, Cohen J C, Hobbs H I T. “Molecular biology of PCSK9: its role in LDL metabolism” TRENDS in Biochemical Sciences 2007; 32:71-77). HepG2 cells were treated with new compounds individually at 20 uM dose for 1 day, 2 day, and 3 days. Total RNA was isolated and 2 μg was used to generate cDNA in a reaction containing random primers and M-MLV at 37° C. for 1 hour in a volume of 25 μl. Real-time PCR was performed on the cDNA using MCEP REALPLEX 2 SYSTEM (Eppendorf) and Universal MasterMix (Applied Biosystems). Human LDLR, PCSK9, and GAPDH Pre-Developed TaqMan Assay Reagents (Applied Biosystems) were used to assess the levels of mRNA expressions in HepG2. The levels of LDLR mRNA or PCSK9 mRNA were normalized to that of GAPDH. Each RNA samples was assayed in triplicate. […]
Total RNA was harvested for quantitative real-time RT-PCR analysis using method described in Examples 16B. […]
The effects of 23 compounds on the mRNA expressions of LDLR and PCSK9 were examined using quantitative real-time RT-PCR assays. […] The fold activity was calculated by dividing mRNA abundance in compound treated cells with that of control.
(In general: In qPCR the cycle at which signal appears reflects the starting amount.)

Data set [3] relates to acetyl coenzyme A carboxylase (ACC). Nature of the data set: ACC phosphorylation in HepG2 cells, Western blot. The following applies: 20 μM, 1, 2, and 3 days (FIG. 12). Type of data set: cell-based, human. Here is the method:
HepG2 cells were treated with 20 μg/ml14R-(+)-THP for 0.5, 2, or 8 hours. Cells were lysed, and 50 μg protein from each sample was subjected to SDS-PAGE, followed by Western blotting using anti-phosphorylated ACC (Cell Signaling) and subsequently reprobed with antibody against β-actin.
(§1) Cells were harvested after 1, 2, and 3 days treatment and western blot analysis was conducted using antibodies directed to LDLR and PCSK9. Chicken anti-LDLR was purchased from Abeam, the mouse anti-PCSK9 was purchased from Cayman Chemicals, and anti-pACC was purchased from Cell Signaling.
(In western blotting, separated proteins are transferred to a membrane and probed.)

Data set [4] concerns LDLR. The data set can be described thus: LDLR protein expression in HepG2 cells, Western blot. The settings on record: 20 μM, 1, 2, and 3 days. Type of data set: cell-based, human. Here is the method: as §1
(§2) To determine whether the stimulatory effects of statins on LDLR protein expression could be enhanced by some new compounds invented herein, HepG2 cells were untreated or treated with a low dose of rosuvastatin (RSV) at 0.3 and 1 uM concentration in the absence or the presence of Compound 127(+), or treated with low concentrations of Compound 127(+) alone for 2 days. Western blot analysis was conducted to examine LDLR and PCSK9 protein levels. Compound 127(+) is the single enantiomer of compound 127 with a positive optical rotation. […] Furthermore, the inducing effects of RSV on PCSK9 protein levels were anatagonized by compound 127(+).
(§3) Chicken anti-LDLR was purchased from Abeam and the mouse anti-PCSK9 was purchased from Cayman Chemicals. HepG2 cells cultured in 60-mm dishes were incubated overnight in medium containing 0.5% fetal bovine serum prior to the addition of compounds at 20 uM concentration for 1-3 days. Total cell lysate was isolated and 50 μg of protein was separated on SDS-PAGE and transferred to nitrocellulose membrane for immunoblotting with anti-LDLR, anti-PCSK9, and anti-p-ACC.

Data set [5] has as its system PCSK9. The data set can be described thus: PCSK9 protein expression in HepG2 cells, Western blot. Type of data set: cell-based, human. The following applies: 20 μM, 1, 2, and 3 days. The protocol:
as §1, §2, §3

Data set [6] relates to hyperlipidemic rabbits. The settings on record: rabbit, in vivo.
Protocol: (§4) Forty-two male Japanese rabbits were fed the cholesterol enriched rabbit diet for two weeks to induce hypercholesterolemia. […] Serum samples were collected at day 0 (before the drug treatment) and day 7. […] All tested animals were sacrified at the end of a total of 14 days treatment and serum samples were analyzed for TC, LDL-C, TG, and HDL-C. In addition to lipid profiles, a number of biochemical parameters were also analyzed to aseesee the effects of drug treatments on liver function, muscle function, kidney function, and heart function.
Data set [7] has as its system hyperlipidemic rabbits. The data set can be described thus: Lipid lowering effects and blood chemistry in hyperlipidemic rabbits. The settings on record: for Body weight: after 14 days of drug treatment; for Body weight / ALP / ALT / AST / CK / CREA / GLU / HDL-C / LDH / LDL-C / TC / TG: mean, n = 6; for serum total cholesterol levels, treatment day 0: day 0 (before the drug treatment), n = 6, in mmol/L (unit assumed); for serum total cholesterol levels, treatment day 0 / serum total cholesterol levels, treatment day 4 / serum total cholesterol levels, treatment day 7 / serum total cholesterol levels, treatment day 10 / serum total cholesterol levels, treatment day 14: mean ± SD; for serum total cholesterol levels, treatment day 4: day 4, oral gavage once a day; for serum total cholesterol levels, treatment day 4 / serum total cholesterol levels, treatment day 7: 128(+)/128(−) 30 mg/kg, SMV/ATV 3 mg/kg; for serum total cholesterol levels, treatment day 7: day 7, oral gavage once a day; for serum total cholesterol levels, treatment day 10: day 10, doses increased after day 7 to 60 mg/kg (128(+)/128(−)) and 10 mg/kg (SMV/ATV), in mmol/L (unit assumed); for serum total cholesterol levels, treatment day 14: day 14, doses increased after day 7 to 60 mg/kg (128(+)/128(−)) and 10 mg/kg (SMV/ATV); for ALP / ALT / AST / CK / CREA / GLU / HDL-C / LDH / LDL-C / TC / TG: serum after 14 days of drug treatment.
Protocol: as §4

For the compound `COc1cc2c(cc1OC)C1Cc3ccc(OC)c(OS(=O)(=O)c4ccccc4)c3CN1CC2` (centres unmarked) [Compound 91, 2,3,10-trimethoxy-5,6,7,8,13,13a-hexahydroisoquinolino[2,1-b]isoquinolin-9-yl benzenesulfonate], the “LDLR mRNA expression” value in data set [1] is reported as “dose-dependently increases”. Further, in data set [2], the “PCSK9 mRNA expression” value is “inhibits”.

`COc1ccc2c(c1)CCN1Cc3c(ccc(OC)c3OS(=O)(=O)c3cccc(F)c3)CC21` (single isomer, unassigned) [128(−)]: in data set [3], the “phosphorylation of ACC” value is on record as “induced ACC phosphorylation”. The LDLR protein levels entry in data set [4] is recorded as “effectively increased”. Also, the “expression of PCSK9 (protein)” value in data set [5] was “strongly inhibited”. Also, the “adverse effect / toxicities” value in data set [6] is on record as “absence of any adverse effect”. Moreover, the “TC and LDL-C reduction” value in data set [7] (14 days treatment, summary in words) was “strong TC and LDL-C reduction”. Besides, in data set [7], the Body weight stood at 2.7 kg; the “serum total cholesterol levels, treatment day 0” value came to 28.5 ± 6.3; the “serum total cholesterol levels, treatment day 4” value is reported as 29.9 ± 8.0; the “serum total cholesterol levels, treatment day 7” value was found to be 29.0 ± 7.9. Moreover, in data set [7], the “serum total cholesterol levels, treatment day 10” value is 27.9 ± 5.2; the “serum total cholesterol levels, treatment day 14” value turned out to be 29.7 ± 4.9; the ALP was 155.5 IU/L; the ALT is 50.2 IU/L. In addition, in data set [7], the AST worked out at 20.8 IU/L, the CK is recorded as 997.5 U/L, the CREA worked out at 105.2 µmol/L and the GLU is on record as 7.9 mmol/L. For the same compound, in data set [7], the HDL-C was 3.5 mmol/L, the LDH was 50.3 IU/L, the LDL-C is 24.4 mmol/L and the TC turned out to be 29.7 mmol/L. For the same compound, in data set [7], the TG turned out to be 0.9 mmol/L.

For `COc1ccc2c(c1)CCN1Cc3c(ccc(OC)c3OS(=O)(=O)c3cccc(F)c3)CC21` (single isomer, unassigned) [128(+)], the “phosphorylation of ACC” value in data set [3] was “induced ACC phosphorylation”. The LDLR protein levels result in data set [4] is reported as “effectively increased”. For the same compound, the “expression of PCSK9 (protein)” value in data set [5] is “strongly inhibited”. Besides, in data set [7], the Body weight is 2.6 kg; the “serum total cholesterol levels, treatment day 0” value worked out at 28.6 ± 6.7; the “serum total cholesterol levels, treatment day 4” value was 31.9 ± 7.5; the “serum total cholesterol levels, treatment day 7” value was 33.9 ± 7.2. Besides, in data set [7], the “serum total cholesterol levels, treatment day 10” value was 33.8 ± 7.8; the “serum total cholesterol levels, treatment day 14” value came out at 34.2 ± 7.4; the ALP is recorded as 165.2 IU/L; the ALT amounted to 68.7 IU/L. In data set [7], this compound gave an AST of 20.8 IU/L, a CK of 1172.3 U/L, a CREA of 97.2 µmol/L and a GLU of 7.9 mmol/L. Moreover, in data set [7], the HDL-C amounted to 3.6 mmol/L, the LDH is given as 47.7 IU/L, the LDL-C stood at 29.7 mmol/L and the TC is on record as 34.2 mmol/L. Besides, the TG in data set [7] was 1.0 mmol/L.
